Test results from ChEMBL document CHEMBL5241097, “Synthetically-tailored and nature-derived dual COX-2/5-LOX inhibitors: Structural aspects and SAR” (Eur J Med Chem, 2021).
In brackets after ≈: the same amount, converted by molar mass. One block for each molecule: values may come before it.

Assays:
[1] = molecular target: T1, Polyunsaturated fatty acid 5-lipoxygenase (Homo sapiens, UniProt P09917); assay: Inhibition of recombinant human 5-LOX using arachidonic acid as substrate preincubated for 10 mins followed by substrate addition and measured after 10 mins by ELISA
T1 sequence (P09917 whole entry): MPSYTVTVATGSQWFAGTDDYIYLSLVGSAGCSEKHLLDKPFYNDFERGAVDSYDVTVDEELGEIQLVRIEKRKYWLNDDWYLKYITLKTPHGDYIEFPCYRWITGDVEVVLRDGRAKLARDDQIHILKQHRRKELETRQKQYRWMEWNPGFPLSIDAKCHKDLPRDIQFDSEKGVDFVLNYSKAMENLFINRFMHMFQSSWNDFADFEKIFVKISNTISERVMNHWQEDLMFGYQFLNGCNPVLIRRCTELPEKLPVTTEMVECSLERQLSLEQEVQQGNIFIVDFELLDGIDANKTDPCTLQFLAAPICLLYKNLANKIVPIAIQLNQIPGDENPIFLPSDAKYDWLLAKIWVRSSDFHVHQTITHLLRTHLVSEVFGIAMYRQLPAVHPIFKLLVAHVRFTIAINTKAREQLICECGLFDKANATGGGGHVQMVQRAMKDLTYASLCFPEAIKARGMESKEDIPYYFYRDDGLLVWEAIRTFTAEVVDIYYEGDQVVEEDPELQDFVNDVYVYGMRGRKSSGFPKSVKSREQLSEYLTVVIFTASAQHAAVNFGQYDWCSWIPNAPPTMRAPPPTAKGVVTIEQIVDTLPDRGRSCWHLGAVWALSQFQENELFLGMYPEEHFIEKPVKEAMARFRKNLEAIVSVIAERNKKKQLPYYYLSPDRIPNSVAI

[2] = molecular target: T2, Prostaglandin G/H synthase 2 (Homo sapiens, UniProt P35354); assay: Inhibition of recombinant human COX-2 using arachidonic acid as substrate preincubated for 5 mins followed by substrate addition and measured after 20 mins by ELISA
T2 sequence (P35354 whole entry): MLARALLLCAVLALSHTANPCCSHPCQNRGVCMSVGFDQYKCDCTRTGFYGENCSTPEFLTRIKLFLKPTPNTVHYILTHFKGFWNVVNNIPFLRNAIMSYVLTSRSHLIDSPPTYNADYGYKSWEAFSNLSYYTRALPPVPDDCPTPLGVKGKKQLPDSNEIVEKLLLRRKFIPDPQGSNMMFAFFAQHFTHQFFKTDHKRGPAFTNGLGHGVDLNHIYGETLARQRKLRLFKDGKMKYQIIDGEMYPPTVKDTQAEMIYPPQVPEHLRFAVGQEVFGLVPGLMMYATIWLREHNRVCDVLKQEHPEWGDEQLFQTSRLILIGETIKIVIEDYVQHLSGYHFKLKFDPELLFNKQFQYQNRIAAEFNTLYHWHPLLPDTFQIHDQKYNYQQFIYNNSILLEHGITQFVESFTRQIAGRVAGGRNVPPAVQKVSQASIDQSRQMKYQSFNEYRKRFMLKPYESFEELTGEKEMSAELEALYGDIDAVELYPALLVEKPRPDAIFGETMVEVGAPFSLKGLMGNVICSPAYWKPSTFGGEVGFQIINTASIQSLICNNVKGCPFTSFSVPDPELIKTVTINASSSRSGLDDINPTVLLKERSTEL

[3] = molecular target: T2, Prostaglandin G/H synthase 2; assay: Inhibition of recombinant human COX-2 by enzyme immune assay
[4] = Selectivity index, ratio IC50 for inhibition of ovine COX-1 to IC50 for inhibition of recombinant human COX-2
[5] = tested on: Rattus norvegicus; assay: Antiinflammatory activity in carragenan-induced paw edema rat model assessed as reduction in edema thickness at 28 microg/kg, ip and measured after 4 hrs by digital Vernier caliper analysis; format: functional; set-up: scale not given: the % may be the effect or the level left; conditions: dose 28 µg/kg
[6] = molecular target: T1, Polyunsaturated fatty acid 5-lipoxygenase; assay: Inhibition of 5-LOX (unknown origin) by enzyme immune assay
[7] = molecular target: T2, Prostaglandin G/H synthase 2; assay: Inhibition of COX-2 (unknown origin) by 2,7-dichlorofluorescein dye based spectrophotometric method
[8] = molecular target: T1, Polyunsaturated fatty acid 5-lipoxygenase; assay: Inhibition of 5-LOX (unknown origin) by spectrophotometric method
[9] = Antioxidant activity assessed as DPPH radical scavenging activity by spectrophotometric analysis; format: functional
[10] = molecular target: T2, Prostaglandin G/H synthase 2; assay: Inhibition of COX-2 (unknown origin) using arachidonic acid as substrate preincubated for 5 mins followed by substrate addition by colorimetric assay
[11] = molecular target: T1, Polyunsaturated fatty acid 5-lipoxygenase; assay: Inhibition of 5-LOX (unknown origin) by colorimetric assay
[12] = molecular target: T2, Prostaglandin G/H synthase 2; assay: Inhibition of COX-2 (unknown origin) using arachidonic acid as substrate preincubated for 5 mins followed by substrate addition and measured after 20 mins by colorimetric assay
[13] = Inhibition of soybean 5-LOX using arachidonic acid as substrate preincubated for 5 mins followed by substrate addition and measured after 5 mins by microplate spectrophotometric analysis; set-up: species or system Glycine max
[14] = tested on: DU-145; assay: Antiproliferative activity against human DU-145 cells assessed as reduction in cell viability incubated for 48 hrs by MTT assay; format: functional, cell-based; conditions: DU-145, 48 h
[15] = molecular target: T1, Polyunsaturated fatty acid 5-lipoxygenase; assay: Inhibition of 5-LOX (unknown origin) by fluorometric analysis
[16] = molecular target: T3, Prostaglandin G/H synthase 1 (Homo sapiens, UniProt P23219); assay: Inhibition of recombinant human COX-1 using arachidonic acid as substrate by ELISA
[17] = molecular target: T2, Prostaglandin G/H synthase 2; assay: Inhibition of recombinant human COX-2 using arachidonic acid as substrate by ELISA
[18] = molecular target: T1, Polyunsaturated fatty acid 5-lipoxygenase; assay: Inhibition of recombinant human 5-LOX using arachidonic acid as substrate incubated for 10 mins by spectrophotometric analysis
[19] = molecular target: T2, Prostaglandin G/H synthase 2; assay: Inhibition of recombinant human COX-2 using arachidonic acid as substrate preincubated for 10 mins followed by substrate addition and measured after 2 mins by Ellman's reagent based ELISA
[20] = tested on: Rattus norvegicus; assay: Antiinflammatory activity in Wistar rat assessed as reduction in carragenan-induced paw edema at 10 mg/kg, po for 7 days followed by carrageenan stimulation and measured upto 6 hrs by vernier caliper method; format: functional; set-up: scale not given: the % may be the effect or the level left; conditions: time 7 day
[21] = molecular target: T2, Prostaglandin G/H synthase 2; assay: Inhibition of recombinant human COX-2 using arachidonic acid as substrate preincubated for 10 mins followed by substrate addition and measured after 2 mins by ELISA
[22] = species: Homo sapiens; assay: Selectivity index, ratio of IC50 for inhibition of human COX1 to IC50 for inhibition of human COX2
[23] = molecular target: T3, Prostaglandin G/H synthase 1; assay: Inhibition of human COX-1 using arachidonic acid as substrate preincubated for 10 mins followed by substrate addition and measured after 2 mins by ELISA
[24] = molecular target: T1, Polyunsaturated fatty acid 5-lipoxygenase; assay: Inhibition of 5-LOX (unknown origin) using linoleic acid as substrate preincubated for 5 mins followed by substrate addition by spectrophotometric assay
[25] = molecular target: T1, Polyunsaturated fatty acid 5-lipoxygenase; assay: Inhibition of 5-LOX (unknown origin)
[26] = tested on: Rattus norvegicus; assay: Antiinflammatory activity in po dosed Sprague-Dawley rat assessed as reduction in carragenan-induced paw edema and measured after 4 hrs by vernier caliper method; format: functional; set-up: scale not given: the % may be the effect or the level left
[27] = molecular target: T2, Prostaglandin G/H synthase 2; assay: Inhibition of COX-2 (unknown origin) by colorimetric method
[28] = molecular target: T2, Prostaglandin G/H synthase 2; assay: Inhibition of COX-2 (unknown origin) using arachidonic acid as substrate preincubated for 15 mins followed by substrate addition by colorimetric assay
[29] = Inhibition of soybean 5-LOX using linoleic acid as substrate by spectrophotometric analysis; set-up: species or system Glycine max
[30] = molecular target: T2, Prostaglandin G/H synthase 2; assay: Inhibition of COX-2 (unknown origin)
[31] = tested on: Rattus norvegicus; assay: Antiinflammatory activity in Wistar rat carragenan-induced paw edema model assessed as reduction in edema thickness at 50 mg/kg, po and measured after 2 hrs; format: functional; set-up: scale not given: the % may be the effect or the level left

T3 sequence (P23219 whole entry): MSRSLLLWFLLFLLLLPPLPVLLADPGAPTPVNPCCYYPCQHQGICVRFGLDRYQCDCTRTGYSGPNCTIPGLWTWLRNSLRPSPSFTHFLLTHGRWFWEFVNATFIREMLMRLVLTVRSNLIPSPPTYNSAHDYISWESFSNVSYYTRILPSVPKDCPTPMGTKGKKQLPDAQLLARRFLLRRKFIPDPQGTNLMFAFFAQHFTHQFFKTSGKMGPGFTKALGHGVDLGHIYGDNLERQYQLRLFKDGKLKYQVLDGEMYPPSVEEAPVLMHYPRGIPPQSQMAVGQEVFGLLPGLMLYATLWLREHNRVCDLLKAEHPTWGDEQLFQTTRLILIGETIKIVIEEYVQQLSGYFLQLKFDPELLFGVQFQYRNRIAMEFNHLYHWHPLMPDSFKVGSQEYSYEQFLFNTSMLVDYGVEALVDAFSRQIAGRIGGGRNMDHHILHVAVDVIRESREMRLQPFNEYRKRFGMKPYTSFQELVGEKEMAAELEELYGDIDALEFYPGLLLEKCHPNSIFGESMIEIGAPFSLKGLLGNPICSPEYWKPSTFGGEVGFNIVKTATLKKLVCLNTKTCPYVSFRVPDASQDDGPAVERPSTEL

Compound: COc1cc(O)cc(/C=C/c2ccc(O)cc2)c1
IC50 [1]: 4.01 µM
IC50 [2]: 0.25 µM

IC50 [3]: 0.1 µM
Ratio IC50 [4]: 135
IC50 [6]: 10.5 µM
Compound: CCCCNC(=O)c1cc(NCc2cc(O)ccc2O)ccc1O
Activity [5]: 40.05%

IC50 [7]: 1850 µM
IC50 [8]: 2030 µM
IC50 [9]: 590 µg/mL (≈ 1560 µM)
Compound: CCC[C@H](O)CCOC(=O)CC[C@]1(C)C=CC[C@@H](C)[C@@]12C=CC(C)(CC)O2 (stereo partly specified)

IC50 [10]: 0.66 µM
IC50 [11]: 0.57 µM
Compound: CC1=NN(c2ccc(S(N)(=O)=O)cc2)C(=O)/C1=N/Nc1ccc(S(N)(=O)=O)cc1

IC50 [12]: 0.12 µM
IC50 [13]: 7.73 µM
IC50 [14]: 8.17 µM
Compound: CCc1ccc(-c2ccc(-n3cc(CNC(=O)C(=O)c4c[nH]c5ccccc45)nn3)cc2)cc1

IC50 [7]: 1400 µM
IC50 [8]: 1620 µM
IC50 [9]: 540 µg/mL (≈ 1170 µM)
Compound: CC[C@H](CO)[C@@](C)(O)C/C=C/C(C)(C)OC(=O)C[C@]1(C)C=CC[C@@H](C)[C@@]12C=CC(C)(CC)O2 (stereo partly specified)

Compound: COc1ccc(/C=c2\c(=O)[nH]n3c(=O)c4ccccc4nc23)cc1OC
IC50 [15]: 1 µM
IC50 [16]: 0.684 µM
IC50 [17]: 0.284 µM

IC50 [18]: 12.7 µM
IC50 [19]: 8.49 µM
Compound: C=C1CCCC2C1(C)CCC(C)C2(C)CCC1=CC(=O)OC1O (stereo unspecified)

IC50 [12]: 0.12 µM
IC50 [13]: 7.46 µM
IC50 [14]: 18.5 µM
Compound: CC(=O)OC[C@@H]1O[C@@H](n2cc(CNC(=O)C(=O)c3cn(S(=O)(=O)c4ccc(C)cc4)c4ccccc34)nn2)[C@H](OC(C)=O)[C@@H](OC(C)=O)[C@H]1OC(C)=O

IC50 [15]: 0.6 µM
IC50 [16]: 1.48 µM
IC50 [17]: 0.488 µM
Compound: COc1cccc(/C=c2\c(=O)[nH]n3c(=O)c4ccccc4nc23)c1

IC50 [21]: 0.07 µM
Ratio IC50 [22]: 115
IC50 [23]: 8.06 µM
IC50 [24]: 0.29 µM
Compound: O=C(c1sc(N(c2ccccc2)c2ccccc2)nc1-c1ccc([N+](=O)[O-])cc1)c1cccc2ccccc12
Activity [20]: 63%

IC50 [3]: 0.11 µM
Ratio IC50 [4]: 120
IC50 [6]: 11.3 µM
Compound: O=C(NC1CCCCC1)c1cc(/N=C/c2cc(O)ccc2O)ccc1O

IC50 [21]: 0.18 µM
Ratio IC50 [22]: 668
Compound: CCc1cc(OC)c(OC)c(OC)c1

IC50 [25]: 4.33 µM
Ratio IC50 [22]: 8.37
IC50 [27]: 5.45 µM
Compound: N#Cc1c(-c2ccc(Cl)cc2)csc1NC(=O)CN1CCOCC1
Activity [26]: 58.77%

IC50 [6]: 3.41 µM
Compound: CC(C)NC(=O)c1cc(N)ccc1O

IC50 [21]: 0.08 µM
Ratio IC50 [22]: 90
IC50 [24]: 0.36 µM
Compound: O=C(/N=C1\SC=C(c2ccc([N+](=O)[O-])cc2)C1c1ccccc1)c1cccc2ccccc12 (stereo unspecified)

Compound: Nc1ccc(O)c(C(=O)NC2CCCCC2)c1
Activity [5]: 102%

IC50 [28]: 6.8 µM
IC50 [29]: 6.4 µM
Compound: NC(=O)c1ccc(-c2nc(CSc3nc4ccccc4s3)no2)cc1

Compound: O=Cc1ccc(O)c(O)c1 [PROTOCATECHUALDEHYDE]
IC50 [30]: 19.7 µM

IC50 [25]: 1.37 µM
IC50 [30]: 2.1 µM
Compound: COc1ccc(-c2nc(-c3cn(C)c4ccccc34)c(C(=O)c3ccc(C#N)cc3)s2)cc1OC

IC50 [18]: 30.5 µM
IC50 [19]: 12.7 µM
Compound: CC1=CCCC2C1(C)CCC(C)C2(C)CC/C(=C\C(=O)O)CO (stereo unspecified)

Compound: Cc1ccc(-c2cc(C(F)(F)F)nn2-c2ccc(S(N)(=O)=O)cc2)cc1 [CELECOXIB]
Activity [31]: 15.7%
Activity [26]: 73.56%
